Laboratory results taken from article PMC7998589, “A Radiobrominated Tyrosine Kinase Inhibitor for EGFR with L858R/T790M Mutations in Lung Carcinoma” (Pharmaceuticals, 2021).

Columns and labels:
[1] = Determination of partition coefficient (n-octanol / 0.1 M phosphate buffer pH 7.4); type: physicochemical
Protocol: To determine the lipophilicity, the partition coefficient of [^77Br]9 was measured as described previously.

[2] = Stability assessment in PBS and murine plasma; type: in vitro ADME, mouse; settings: 1 h, 37 °C
Protocol: The stability profile of [^77Br]9 in phosphate-buffered saline (PBS) and murine plasma is presented in Supporting Information (Figure S2). [^77Br]9 was >80% intact in PBS and murine plasma after incubation for 1 h at 37 °C. Its purity decreased to 57% after 24 h of incubation.
To confirm the stability, we measured the purity of radiotracer after incubation in PBS and mouse plasma, respectively, as described previously.

[3] = system: H1975 (L858R/T790M double mutations EGFR); assay: Cellular uptake and blocking study, H1975; type: cell-based, human
Protocol: H1975 (1 × 10^5 cells/well), H441 (1 × 10^5 cells/well), and H3255 (2 × 10^5 cells/well) NSCLC cells were cultured in 6 well plates. Cells were incubated in medium with 10% FBS and 100 IU/mL penicillin–streptomycin at 37 °C in a humidified atmosphere with 5% CO2 for 24 h. […] The cells were dissolved by a 1.0 M NaOH aqueous solution (0.5 mL × 2). The cell lysate was transferred into a test tube. The radioactivity of ^77Br was measured by an auto well gamma counter at a 100–600 keV energy range. […] The BCA protein assay kit protocol was used to determine the protein concentration.

[4] = Biodistribution of double tracers in normal mice; type: in vivo; settings: ddY mice
Protocol: (§1) One month later, ^125I activity was determined.

H1975 and H441 tumors = assay: Biodistribution of double tracers in tumor-bearing mice; type: in vivo, BALB/c nu/nu mice
Protocol: Six weeks old male ddY mice and four weeks old female BALB/c nu/nu mice were purchased from Japan SLC Inc. (Hamamatsu, Japan). Tumor-bearing mice were prepared by subcutaneous injection of cells suspended in 100 μL medium to the female BALB/c nu/nu mice. H1975 cells (5 × 10^6 cells) were implanted in the right shoulder, and H441 cells (3 × 10^6 cells) were implanted in the left shoulder. The tumor reached palpable size after post-inoculation 12 and 9 days for H1975 and H441, respectively.
as §1

H1975 (EGFR L858R/T790M) = system: H1975 (EGFR L858R/T790M); design: method as in PMID 32599930; settings: WST-8, ref [9]; cited from earlier work
H3255 (EGFR L858R) = system: H3255 (EGFR L858R); design: method as in PMID 32599930; settings: WST-8, ref [9]; cited from earlier work
H441 (wild-type EGFR) = system: H441 (wild-type EGFR); design: method as in PMID 32599930; settings: WST-8, ref [9]; cited from earlier work
EGFR L858R/T790M = system: EGFR L858R/T790M; design: method as in PMID 32599930; settings: ref [9]; cited from earlier work

Structure (SMILES): C=CC(=O)Nc1cc([77Br])cc(Nc2nc(Nc3ccc(N4CCN(C(C)=O)CC4)cc3OC)ncc2C(F)(F)F)c1 [[^77Br]9]
- logP [1]: 1.72 ± 0.21
- intact in PBS ([2]; PBS): > 80%
- intact in murine plasma ([2]; murine plasma): > 80%
- accumulation in H1975 versus H3255 and H441 ([3]; 4 h of incubation): significantly higher
- reduction of uptake upon pretreatment with CO-1686 ([3]; H1975): ~60%
- accumulation of radioactivity with pretreatment with excess CO-1686 ([3]; H1975, 4 h, CO-1686 100 µM blocking): 56.9 % dose/mg protein
- accumulation of radioactivity (cell uptake) ([3]; H1975, 4 h incubation): 136.3 % dose/mg protein
- effect of gefitinib on uptake ([3]; H1975, gefitinib 100 µM blocking): not significantly reduced
- Biodistribution, Blood ([4]; 10 min after i.v. injection): 3.57 % ID/g
- Biodistribution, Bone ([4]; 10 min after i.v. injection): 2.76 % ID/g
- Biodistribution, Brain ([4]; 10 min after i.v. injection): 0.45 % ID/g
- Biodistribution, Heart ([4]; 10 min after i.v. injection): 4.57 % ID/g
- Biodistribution, Kidney ([4]; 10 min after i.v. injection): 11.68 % ID/g
- Biodistribution, Large intestine ([4]; 10 min after i.v. injection): 2.83 % ID/g
- Biodistribution, Liver ([4]; 10 min after i.v. injection): 11.04 % ID/g
- Biodistribution, Lung ([4]; 10 min after i.v. injection): 8.72 % ID/g
- Biodistribution, Muscle ([4]; 10 min after i.v. injection): 3.18 % ID/g
- Biodistribution, Pancreas ([4]; 10 min after i.v. injection): 3.78 % ID/g
- Biodistribution, Small intestine ([4]; 10 min after i.v. injection): 25.38 % ID/g
- Biodistribution, Spleen ([4]; 10 min after i.v. injection): 5.11 % ID/g
- Biodistribution, Stomach ([4]; 10 min after i.v. injection): 6.17 % ID/organ
- Biodistribution, Blood ([4]; 1 h after i.v. injection): 3.24 % ID/g
- Biodistribution, Bone ([4]; 1 h after i.v. injection): 1.66 % ID/g
- Biodistribution, Brain ([4]; 1 h after i.v. injection): 0.95 % ID/g
- Biodistribution, Heart ([4]; 1 h after i.v. injection): 2.93 % ID/g
- Biodistribution, Kidney ([4]; 1 h after i.v. injection): 4.21 % ID/g
- Biodistribution, Large intestine ([4]; 1 h after i.v. injection): 3.18 % ID/g
- Biodistribution, Liver ([4]; 1 h after i.v. injection): 3.83 % ID/g
- Biodistribution, Lung ([4]; 1 h after i.v. injection): 4.97 % ID/g
- Biodistribution, Muscle ([4]; 1 h after i.v. injection): 2.02 % ID/g
- Biodistribution, Pancreas ([4]; 1 h after i.v. injection): 3.58 % ID/g
- Biodistribution, Small intestine ([4]; 1 h after i.v. injection): 26.49 % ID/g
- Biodistribution, Spleen ([4]; 1 h after i.v. injection): 4.83 % ID/g
- Biodistribution, Stomach ([4]; 1 h after i.v. injection): 7.00 % ID/organ
- Biodistribution, Blood ([4]; 4 h after i.v. injection): 3.19 % ID/g
- Biodistribution, Bone ([4]; 4 h after i.v. injection): 1.54 % ID/g
- Biodistribution, Brain ([4]; 4 h after i.v. injection): 0.74 % ID/g
- Biodistribution, Heart ([4]; 4 h after i.v. injection): 1.87 % ID/g
- Biodistribution, Kidney ([4]; 4 h after i.v. injection): 2.81 % ID/g
- Biodistribution, Large intestine ([4]; 4 h after i.v. injection): 47.73 % ID/g
- Biodistribution, Liver ([4]; 4 h after i.v. injection): 3.72 % ID/g
- Biodistribution, Lung ([4]; 4 h after i.v. injection): 5.08 % ID/g
- Biodistribution, Muscle ([4]; 4 h after i.v. injection): 1.13 % ID/g
- Biodistribution, Pancreas ([4]; 4 h after i.v. injection): 3.04 % ID/g
- Biodistribution, Small intestine ([4]; 4 h after i.v. injection): 5.23 % ID/g
- Biodistribution, Spleen ([4]; 4 h after i.v. injection): 2.92 % ID/g
- Biodistribution, Stomach ([4]; 4 h after i.v. injection): 6.68 % ID/organ
- Biodistribution, Blood ([4]; 24 h after i.v. injection): 1.99 % ID/g
- Biodistribution, Bone ([4]; 24 h after i.v. injection): 0.89 % ID/g
- Biodistribution, Brain ([4]; 24 h after i.v. injection): 0.42 % ID/g
- Biodistribution, Heart ([4]; 24 h after i.v. injection): 0.80 % ID/g
- Biodistribution, Kidney ([4]; 24 h after i.v. injection): 1.33 % ID/g
- Biodistribution, Large intestine ([4]; 24 h after i.v. injection): 0.98 % ID/g
- Biodistribution, Liver ([4]; 24 h after i.v. injection): 1.04 % ID/g
- Biodistribution, Lung ([4]; 24 h after i.v. injection): 1.62 % ID/g
- Biodistribution, Muscle ([4]; 24 h after i.v. injection): 0.47 % ID/g
- Biodistribution, Pancreas ([4]; 24 h after i.v. injection): 1.13 % ID/g
- Biodistribution, Small intestine ([4]; 24 h after i.v. injection): 1.00 % ID/g
- Biodistribution, Spleen ([4]; 24 h after i.v. injection): 1.14 % ID/g
- Biodistribution, Stomach ([4]; 24 h after i.v. injection): 2.21 % ID/organ
- eliminated in feces ([4]; 24 h postinjection): 35%
- Biodistribution, Blood (H1975 and H441 tumors; 1 h after i.v. injection): 5.64 % ID/g
- Biodistribution, Bone (H1975 and H441 tumors; 1 h after i.v. injection): 1.93 % ID/g
- Biodistribution, Brain (H1975 and H441 tumors; 1 h after i.v. injection): 1.49 % ID/g
- Biodistribution, H441 tumor (H1975 and H441 tumors; 1 h after i.v. injection): 3.71 % ID/g
- Biodistribution, H1975 tumor (H1975 and H441 tumors; 1 h after i.v. injection): 4.51 % ID/g
- Biodistribution, Heart (H1975 and H441 tumors; 1 h after i.v. injection): 5.36 % ID/g
- Biodistribution, Kidney (H1975 and H441 tumors; 1 h after i.v. injection): 7.75 % ID/g
- Biodistribution, Large intestine (H1975 and H441 tumors; 1 h after i.v. injection): 24.33 % ID/g
- Biodistribution, Liver (H1975 and H441 tumors; 1 h after i.v. injection): 15.89 % ID/g
- Biodistribution, Lung (H1975 and H441 tumors; 1 h after i.v. injection): 11.42 % ID/g
- Biodistribution, Muscle (H1975 and H441 tumors; 1 h after i.v. injection): 3.42 % ID/g
- Biodistribution, Pancreas (H1975 and H441 tumors; 1 h after i.v. injection): 12.95 % ID/g
- Biodistribution, Small intestine (H1975 and H441 tumors; 1 h after i.v. injection): 64.52 % ID/g
- Biodistribution, Spleen (H1975 and H441 tumors; 1 h after i.v. injection): 9.19 % ID/g
- Biodistribution, Stomach (H1975 and H441 tumors; 1 h after i.v. injection): 1.31 % ID/organ
- Biodistribution, Blood (H1975 and H441 tumors; 6 h after i.v. injection): 5.35 % ID/g
- Biodistribution, Bone (H1975 and H441 tumors; 6 h after i.v. injection): 1.95 % ID/g
- Biodistribution, Brain (H1975 and H441 tumors; 6 h after i.v. injection): 1.39 % ID/g
- Biodistribution, H441 tumor (H1975 and H441 tumors; 6 h after i.v. injection): 3.30 % ID/g
- Biodistribution, H1975 tumor (H1975 and H441 tumors; 6 h after i.v. injection): 3.48 % ID/g
- Biodistribution, Heart (H1975 and H441 tumors; 6 h after i.v. injection): 2.99 % ID/g
- Biodistribution, Kidney (H1975 and H441 tumors; 6 h after i.v. injection): 4.91 % ID/g
- Biodistribution, Large intestine (H1975 and H441 tumors; 6 h after i.v. injection): 59.40 % ID/g
- Biodistribution, Liver (H1975 and H441 tumors; 6 h after i.v. injection): 6.76 % ID/g
- Biodistribution, Lung (H1975 and H441 tumors; 6 h after i.v. injection): 6.29 % ID/g
- Biodistribution, Muscle (H1975 and H441 tumors; 6 h after i.v. injection): 1.79 % ID/g
- Biodistribution, Pancreas (H1975 and H441 tumors; 6 h after i.v. injection): 4.28 % ID/g
- Biodistribution, Small intestine (H1975 and H441 tumors; 6 h after i.v. injection): 12.46 % ID/g
- Biodistribution, Spleen (H1975 and H441 tumors; 6 h after i.v. injection): 2.04 % ID/g
- Biodistribution, Stomach (H1975 and H441 tumors; 6 h after i.v. injection): 1.27 % ID/organ

Structure (SMILES): C=CC(=O)Nc1cc(I)cc(Nc2nc(Nc3ccc(N4CCN(C(C)=O)CC4)cc3OC)ncc2C(F)(F)F)c1 [ICO1686]
- IC50 (H1975 (EGFR L858R/T790M)): 200 ± 50 nM
- IC50 (H3255 (EGFR L858R)): 500 ± 210 nM
- IC50 (H441 (wild-type EGFR)): 1840 ± 440 nM
- selectivity toward EGFR L858R/T790M compared with wild-type EGFR (EGFR L858R/T790M): high selectivity

Structure (SMILES): C=CC(=O)Nc1cccc(Nc2nc(Nc3ccc(N4CCN(C(C)=O)CC4)cc3OC)ncc2C(F)(F)F)c1 [CO-1686, rociletinib]
- IC50 (H1975 (EGFR L858R/T790M)): 140 ± 50 nM
- IC50 (H3255 (EGFR L858R)): 150 ± 20 nM
- IC50 (H441 (wild-type EGFR)): 260 ± 40 nM
- selectivity toward EGFR L858R/T790M compared with wild-type EGFR (EGFR L858R/T790M): high selectivity
